{"source": "patent EP3977982A1", "about": "(Acerus Biopharma Inc., priority 2011, dated 2012)", "key": {"[1]": {"conditions": "formulated in ethanol/propylene glycol/water; cited from earlier work"}, "[2]": {"conditions": "nasal, dissolved in polyethylene glycol (200 mg/ml); cited from earlier work"}, "[3]": {"conditions": "cited from earlier work"}, "[4]": {"conditions": "nasal, cited from earlier work"}, "[5]": {"assay": "pKa assessment of testosterone", "conditions": "inferred from molecular structure, no protonatable groups"}, "[6]": {"molecular_target": "T1, sex hormone binding globulin (SHBG) (Homo sapiens, UniProt P04278)", "T1 sequence (P04278 30-402)": "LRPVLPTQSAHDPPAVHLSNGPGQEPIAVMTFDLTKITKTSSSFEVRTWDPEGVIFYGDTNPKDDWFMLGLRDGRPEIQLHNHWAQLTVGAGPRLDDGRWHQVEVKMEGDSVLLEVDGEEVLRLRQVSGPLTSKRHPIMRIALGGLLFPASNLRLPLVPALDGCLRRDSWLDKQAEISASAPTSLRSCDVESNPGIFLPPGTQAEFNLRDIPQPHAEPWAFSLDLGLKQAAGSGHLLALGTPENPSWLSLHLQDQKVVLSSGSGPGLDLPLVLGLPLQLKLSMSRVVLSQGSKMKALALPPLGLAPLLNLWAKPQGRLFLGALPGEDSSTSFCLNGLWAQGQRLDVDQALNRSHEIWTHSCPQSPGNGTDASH", "conditions": "cited from earlier work"}, "[7]": {"assay": "Solubility of testosterone in water, solvents, oils and vehicles"}, "[8]": {"conditions": "drug substance; cited from earlier work"}}, "note": "Read-outs that look alike come from different tables or passages of the source.", "data": [{"smiles": "CC(=O)[C@H]1CC[C@H]2[C@@H]3CCC4=CC(=O)CC[C@]4(C)[C@H]3CC[C@]12C", "note": "[progesterone]", "values": [{"measurement": "Tmax", "setting": "[1]", "value": 5.5, "unit": "min"}, {"measurement": "Tmax", "setting": "[2]", "value": 30, "unit": "min"}, {"measurement": "duration of serum level", "setting": "[2]", "value": "at least 8 hours"}, {"measurement": "serum level decrease", "setting": "[3]; nasal powder mixtures progesterone/cyclodextrin", "value": "≤ 20", "unit": "min"}, {"measurement": "Tmax", "setting": "[3]; nasal powder mixtures, co-ground and co-lyophilized progesterone/cyclodextrin", "value": "2 to 5", "unit": "min"}]}, {"smiles": "CN(C)CC(=O)O[C@H]1CC[C@H]2[C@@H]3CCC4=CC(=O)CC[C@]4(C)[C@H]3CC[C@]12C", "note": "[testosterone 17β-N,N-dimethylglycinate]", "values": [{"measurement": "time to peak plasma concentrations", "setting": "[4]; 25 mg dose", "value": "≤ 12", "unit": "min"}, {"measurement": "time to peak plasma concentrations", "setting": "[4]; 50 mg dose", "value": "≤ 20", "unit": "min"}, {"measurement": "elimination half-lives", "setting": "[4]", "value": "about 55 min"}]}, {"smiles": "C[C@]12CC[C@H]3[C@@H](CCC4=CC(=O)CC[C@@]43C)[C@@H]1CC[C@@H]2O", "note": "[testosterone, Testosterone]", "values": [{"measurement": "pKa", "setting": "[5]", "value": "no pKa value in the range 1-14"}, {"measurement": "testosterone remaining unbound (free)", "setting": "[6]; in men", "value": "about 2%"}, {"measurement": "testosterone remaining unbound (free)", "setting": "[6]; in women", "value": "up to 3%"}, {"measurement": "testosterone levels in the gel", "setting": "[7]; DMI used in conjunction with the other excipients", "value": "≥ 8.0", "unit": "%"}, {"measurement": "testosterone dissolved by solvent alone", "setting": "[7]; Diethyleneglycol ethyl ether alone", "value": "more than 10%"}, {"measurement": "testosterone dissolved by solvent", "setting": "[7]; Dimethyl isosorbide (DMI)", "value": "more than 12%"}, {"measurement": "solubility", "setting": "[7]; acetone and isopropanol", "value": "soluble"}, {"measurement": "amount an aqueous solution can contain", "setting": "[7]; aqueous solution", "value": 0.002, "unit": "mg per 100 µL"}, {"measurement": "solubility of testosterone in oils", "setting": "[7]; castor oil", "value": "up to 4%"}, {"measurement": "amount a castor oil solution can contain", "setting": "[7]; castor oil solution", "value": "up to 4.5 mg per 100 µL"}, {"measurement": "solubility of testosterone in oils", "setting": "[7]; corn oil", "value": 0.5, "unit": "%"}, {"measurement": "solubility of testosterone in oils", "setting": "[7]; cottonseed oil", "value": 0.7, "unit": "%"}, {"measurement": "solubility of testosterone in oils", "setting": "[7]; isopropylmyristate", "value": 0.8, "unit": "%"}, {"measurement": "solubility", "setting": "[7]; methanol and ethanol", "value": "freely soluble"}, {"measurement": "solubility", "setting": "[7]; n-heptane", "value": "insoluble"}, {"measurement": "Testosterone solubility in the oil based gel", "setting": "[7]; oil based TBS-1A gel (so in the source)", "value": "about 4.5%"}, {"measurement": "solubility of testosterone in oils", "setting": "[7]; peanut oil", "value": 0.5, "unit": "%"}, {"measurement": "solubility of testosterone in oils", "setting": "[7]; soybean oil", "value": 0.6, "unit": "%"}, {"measurement": "retest period", "setting": "[8]", "value": 5, "unit": "years"}]}]}
